Results reported in BindingDB's records for patent US20250313563 (The Broad Institute, 2025).
Several values for one entry are separate records, joined by “and”; a condition that tells them apart may be missing. Identical values can stand only once.

Columns and labels:
[1] = biological target: Glycogen synthase kinase-3 alpha (Homo sapiens, UniProt P49840); experiment: TR-FRET Assay
In short: (§1)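 30 min preinc w/ cpd in assay buffer → kinase rxn → EDTA quench → add detection mix (40 nM SA-d2, 2 nM Tb-pSer641 Ab) → TR-FRET read.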

[2] = biological target: Glycogen synthase kinase-3 beta (Homo sapiens, UniProt P49841); experiment: TR-FRET Assay
In short: as §1

Glycogen synthase kinase-3 beta, sequence (P49841 whole entry): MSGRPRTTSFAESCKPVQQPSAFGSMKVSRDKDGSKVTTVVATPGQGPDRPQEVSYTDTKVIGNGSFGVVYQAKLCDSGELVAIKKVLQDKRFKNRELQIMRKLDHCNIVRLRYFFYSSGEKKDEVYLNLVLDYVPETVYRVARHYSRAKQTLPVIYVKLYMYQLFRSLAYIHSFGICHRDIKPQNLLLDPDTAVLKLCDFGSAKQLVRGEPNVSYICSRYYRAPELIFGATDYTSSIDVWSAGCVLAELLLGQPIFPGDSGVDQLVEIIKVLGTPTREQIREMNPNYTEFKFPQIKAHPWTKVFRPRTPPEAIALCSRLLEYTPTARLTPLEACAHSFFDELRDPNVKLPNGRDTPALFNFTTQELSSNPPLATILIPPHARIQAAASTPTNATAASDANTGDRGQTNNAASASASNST
Glycogen synthase kinase-3 alpha, sequence (P49840 whole entry): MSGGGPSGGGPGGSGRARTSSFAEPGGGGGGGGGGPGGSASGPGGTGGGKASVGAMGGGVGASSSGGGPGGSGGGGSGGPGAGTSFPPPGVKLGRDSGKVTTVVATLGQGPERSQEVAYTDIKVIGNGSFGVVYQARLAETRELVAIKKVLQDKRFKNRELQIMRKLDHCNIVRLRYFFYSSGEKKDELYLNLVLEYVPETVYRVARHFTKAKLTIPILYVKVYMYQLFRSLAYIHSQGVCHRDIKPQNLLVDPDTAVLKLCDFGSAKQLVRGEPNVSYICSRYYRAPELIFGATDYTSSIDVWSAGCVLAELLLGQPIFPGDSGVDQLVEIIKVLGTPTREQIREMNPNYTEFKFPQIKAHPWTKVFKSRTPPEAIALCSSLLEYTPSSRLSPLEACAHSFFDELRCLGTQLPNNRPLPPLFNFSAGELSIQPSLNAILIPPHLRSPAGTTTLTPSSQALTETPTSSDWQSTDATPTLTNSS

Row | SMILES | IC50 [1] | IC50 [2]
1 | CC[C@@]1(c2cccc(-c3cc(C)nn3C)c2)C2=CN=NC2NC2=C1C(=O)CC(C)(C)[C@@H]2F (some centres not stated) [US20250313563, Compound 947657] | 100 to 1000 nM | > 5000 nM
2 | CC[C@]1(c2cccc(Oc3ncccn3)c2)C2=C(CC(C)(C)NC2=O)NC2N=NC(Cl)=C21 (some centres not stated) [US20250313563, Compound 951606] | < 100 nM | < 100 nM and 100 to 1000 nM
3 | CC1(C)CC(=O)C2=C(C1)NC1N=NC=C1C21CCCN(C(=O)c2ccccc2)CC1 (configuration not stated) [US20250313563, Compound 889577] | 1000 to 5000 nM | 1000 to 5000 nM
4 | CCC1(c2cccc(S(=O)(=O)C3CC3)c2)C2=CN=NC2NC2=C1C(=O)NC(C)(C)C2 (configuration not stated) [US20250313563, Compound 945465] | < 100 nM | < 100 nM
5 | CCC1(c2cccc(C(F)(F)F)c2)C2=CN=NC2NC2=C1C(=O)CC(C)C2 (configuration not stated) [US20250313563, Compound 801397] | < 100 nM | 100 to 1000 nM
6 | CCC1(c2cccc(N3CCCC3=O)c2)C2=CN=NC2NC2=C1C(=O)CC(C)(C)C2 (configuration not stated) [US20250313563, Compound 865171] | < 100 nM | 100 to 1000 nM
7 | CC1(C)CC(=O)C2=C(C1)NC1=C(CN=N1)C21CCN(S(=O)(=O)c2ccccc2C#N)CC1 [US20250313563, Compound 947479] | < 100 nM | < 100 nM
8 | CC[C@]1(c2cccc(C3=C4CC=CC(F)=C4N=CC3)c2)C2=CN=NC2NC2=C1C(=O)NC(C)(C)C2 (some centres not stated) [US20250313563, Compound 948813] | 1000 to 5000 nM | > 5000 nM
9 | CCC1(c2cccc(O)c2)C2=C(N=NC2)NC2=C1C(=O)CC(C)(C)C2 (configuration not stated) [US20250313563, Compound 930334] | < 100 nM | 100 to 1000 nM
10 | CCC1(c2cccc(N(C)c3cnccn3)c2)C2=CN=NC2NC2=C1C(=O)CC(C)(C)C2 (configuration not stated) [US20250313563, Compound 902971] | < 100 nM | < 100 nM
11 | CC1N=NC2=C1C1(CCCC1)C1=C(CC(C)(C)CC1=O)N2 (configuration not stated) [US20250313563, Compound 786072] | < 100 nM | < 100 nM
12 | CC[C@]1(c2cccc(C3=C4CC=C(Cl)C=C4N=CC3)c2)C2=CN=NC2NC2=C1C(=O)NC(C)(C)C2 (some centres not stated) [US20250313563, Compound 948362] | > 5000 nM | > 5000 nM
13 | CC[C@@]1(c2cccc(-c3cnn(C(C)C)c3F)c2)C2=CN=NC2NC2=C1C(=O)NC(C)(C)C2 (some centres not stated) [US20250313563, Compound 950061] | 100 to 1000 nM | > 5000 nM
14 | CC[C@]1(c2cccc(-c3cnn(C)c3C)c2)C2=C(CC(C)(C)NC2=O)NC2N=NC(C(F)(F)F)=C21 (some centres not stated) [US20250313563, Compound 947807] | < 100 nM | 100 to 1000 nM
15 | CCn1cc(N2CCC3=C(C2=O)[C@](CC)(c2cccc(C(F)(F)F)c2)C2=CN=NC2N3)cn1 (some centres not stated) [US20250313563, Compound 949867] | < 100 nM | 100 to 1000 nM
16 | CC[C@@]1(c2cccc(C(F)(F)F)c2)C2=C(CC(C)(C)CC2=O)NC2N=NC(Br)=C21 (some centres not stated) [US20250313563, Compound 810464] | 1000 to 5000 nM | 1000 to 5000 nM
17 | CC[C@@]1(c2cccc(-c3ccnn3C)c2)C2=CN=NC2NC2=C1C(=O)NC1(CCC1)C2 (some centres not stated) [US20250313563, Compound 948358] | < 100 nM and 100 to 1000 nM | < 100 nM and 1000 to 5000 nM
18 | C[C@@H]1CCC[C@@]2(C1)C1=C(N=NC1)NC1=C2C(=O)CC(C)(C)C1 [US20250313563, Compound 874532] | < 100 nM | < 100 nM
19 | CC[C@]1(c2cccc(C(C)C)c2)C2=CN=NC2NC2=C1C(=O)NC(C)(C)C2 (some centres not stated) [US20250313563, Compound 949761] | 100 to 1000 nM | 100 to 1000 nM
20 | CC[C@@H]1C[C@@]2(CO1)C1=C(N=NC1)NC1=C2C(=O)CC(C)(C)C1 [US20250313563, Compound 913215] | 100 to 1000 nM | 1000 to 5000 nM
21 | CCCS(=O)(=O)c1cccc([C@]2(CC)C3=CN=NC3NC3=C2C(=O)CC(C)(C)C3)c1 (some centres not stated) [US20250313563, Compound 929452] | 1000 to 5000 nM | > 5000 nM
22 | CCC1(c2cccc(C(F)(F)F)c2)C2=CN=NC2NC2=C1C(=O)NC(C)C2 (configuration not stated) [US20250313563, Compound 911956] | < 100 nM | 100 to 1000 nM
23 | C[C@@H]1C[C@]2(CCO1)C1=C(N=NC1)NC1=C2C(=O)CC(C)(C)C1 [US20250313563, Compound 924308] | 100 to 1000 nM | 100 to 1000 nM

Row | SMILES | IC50 [1] | IC50 [2]
24 | CCC1(c2cccc(-c3ccnn3C)c2)C2=CN=NC2NC2=C1C(=O)CC(C)(C)C2 (configuration not stated) [US20250313563, Compound 883852] | < 100 nM | < 100 nM
25 | CCC1(c2cccc(S(=O)(=O)C3CCOCC3)c2)C2=CN=NC2NC2=C1C(=O)CC(C)(C)C2 (configuration not stated) [US20250313563, Compound 927344] | < 100 nM | < 100 nM
26 | CCn1nccc1S(=O)(=O)N1CCC2(CC1)C1=C(N=NC1)NC1=C2C(=O)CC(C)(C)C1 [US20250313563, Compound 945664] | < 100 nM | < 100 nM
27 | CC1(C)CC(=O)C2=C(NC3=C(CN=N3)C23CCN(S(=O)(=O)c2ccccc2C(F)F)CC3)[C@H]1F [US20250313563, Compound 951839] | < 100 nM | 100 to 1000 nM
28 | CC[C@@]1(c2cccc(-c3ccnc(C)c3Cl)c2)C2=CN=NC2NC2=C1C(=O)NC(C)(C)C2 (some centres not stated) [US20250313563, Compound 948361] | < 100 nM and 100 to 1000 nM | < 100 nM and 1000 to 5000 nM
29 | CC[C@]1(c2ccccc2)C2=CN=NC2NC2=C1C(=O)C[C@]1(CCCOC1)C2 (some centres not stated) [US20250313563, Compound 816878] | 100 to 1000 nM | 1000 to 5000 nM
30 | CC[C@]1(c2cccc(N3CCOc4ncccc43)c2)C2=CN=NC2NC2=C1C(=O)CC(C)(C)C2 (some centres not stated) [US20250313563, Compound 932643] | 100 to 1000 nM | 1000 to 5000 nM
31 | CC[C@]1(c2cccc(-c3ccnc(C)c3F)c2)C2=CN=NC2NC2=C1C(=O)NC(C)(C)C2 (some centres not stated) [US20250313563, Compound 948311] | 100 to 1000 nM | 1000 to 5000 nM
32 | CCC1(c2cccc(N3CCNCC3)c2)C2=CN=NC2NC2=C1C(=O)CC(C)(C)C2 (configuration not stated) [US20250313563, Compound 806604] | > 1670 nM | > 5000 nM
33 | CO[C@H]1CC[C@@]2(CC1)C1=C(N=NC1)NC1=C2C(=O)CC(C)(C)C1 [US20250313563, Compound 884119] | < 100 nM | 100 to 1000 nM
34 | CN(C)S(=O)(=O)c1cccc([C@]2(C)C3=C(CC(C)(C)CC3=O)NC3=C2C(CC(C)(C)C)N=N3)c1 (some centres not stated) [US20250313563, Compound 126012] | 1000 to 5000 nM | 100 to 1000 nM
35 | CC1(C)CC(=O)C2=C(C1)NC1=C(CN=N1)[C@]21C[C@@H](OCc2ccccc2)C1 [US20250313563, Compound 909211] | < 100 nM | 100 to 1000 nM
36 | CC[C@]1(c2cccc(C(F)(F)F)c2)C2=CN=NC2NC2=C1C(=O)C[C@]1(CCNC1=O)C2 (some centres not stated) [US20250313563, Compound 950333] | < 100 nM | 100 to 1000 nM
37 | CC1(C)CC(=O)C2=C(C1)NC1N=NC(CC(F)(F)F)=C1[C@@]21CCc2c(F)cccc21 (some centres not stated) [US20250313563, Compound 816837] | 1000 to 5000 nM | 100 to 1000 nM
38 | CC[C@@]1(c2cccc(-c3cnn(-c4ccncc4)c3)c2)C2=CN=NC2NC2=C1C(=O)NC(C)(C)C2 (some centres not stated) [US20250313563, Compound 952912] | 100 to 1000 nM | > 5000 nM
39 | CC[C@]1(c2cccc(-c3cc(C)nn3C)c2)C2=CN=NC2NC2=C1C(=O)CC(C)(C)[C@@H]2F (some centres not stated) [US20250313563, Compound 947655] | < 100 nM | 100 to 1000 nM
40 | C[C@H]1CC(=O)C2=C(C1)NC1=C(CN=N1)[C@@]2(C)c1ccccc1 [US20250313563, Compound 789334] | 100 to 1000 nM | 1000 to 5000 nM
41 | CCC1(c2cc(N3CCOCC3)ccc2F)C2=CN=NC2NC2=C1C(=O)CC(C)(C)C2 (configuration not stated) [US20250313563, Compound 909203] | 100 to 1000 nM | 1000 to 5000 nM
42 | CC(C)(C)CC1N=NC2=C1[C@](C)(c1ccccc1)C1=C(CC(C)(C)NC1=O)N2 (some centres not stated) [US20250313563, Compound 114531] | > 5000 nM | 1000 to 5000 nM
43 | CC[C@@]1(c2cccc(C(F)(F)F)c2)C2=CN=NC2NC2=C1C(=O)N(c1ccccc1C)CC2 (some centres not stated) [US20250313563, Compound 949129] | > 5000 nM | > 5000 nM
44 | CC1(C)CC(=O)C2=C(C1)NC1=C(CN=N1)C21COC2(CN(C(=O)C3CCC(F)CC3)C2)C1 (configuration not stated) [US20250313563, Compound 947267] | < 100 nM | 100 to 1000 nM
45 | COc1ccc(S(=O)(=O)N2CCC3(CC2)C2=C(N=NC2)NC2=C3C(=O)CC(C)(C)C2)cc1Cl [US20250313563, Compound 947612] | < 100 nM | < 100 nM
46 | C[C@@H]1CCC[C@@]12C1=CN=NC1NC1=C2C(=O)CC(C)(C)C1 (some centres not stated) [US20250313563, Compound 874319] | 1000 to 5000 nM | 1000 to 5000 nM
